Source: ChEMBL document CHEMBL5154828 (J Med Chem, 2022)
Activity calls are given as the source filed them. No cut-off for these calls is given here.

Assays:
[1] = Cmax in Sprague-Dawley rat at 5 mg/kg, po measured up to 24 hrs by LC/MS/MS analysis; assay type: ADME, organism-based; parameters: time < 24 hrs, dose 5 mg/kg, route po; conditions: in vivo
[2] = AUC (0 to t) in Sprague-Dawley rat at 5 mg/kg, po measured up to 24 hrs by LC/MS/MS analysis; assay type: ADME, organism-based; parameters: time < 24 hrs, dose 5 mg/kg, route po; conditions: in vivo
MCF7 = test: Anti-hyperplasia activity in […] Sprague-Dawley rat assessed as appearance of tall columnar phenotype in epithelial cells at 60 mg/kg, po once daily for 3 days by hematoxylin and eosin staining based assay; assay type: functional, organism-based; conditions: time 3.0 day
Estrogen receptor [3] = biological target: T1, Estrogen receptor (Homo sapiens, UniProt P03372); test: Induction of ERalpha degradation in human MCF7 cells incubated for 24 hrs by Western blot analysis; assay type: cell-based
T1 sequence (P03372 whole entry): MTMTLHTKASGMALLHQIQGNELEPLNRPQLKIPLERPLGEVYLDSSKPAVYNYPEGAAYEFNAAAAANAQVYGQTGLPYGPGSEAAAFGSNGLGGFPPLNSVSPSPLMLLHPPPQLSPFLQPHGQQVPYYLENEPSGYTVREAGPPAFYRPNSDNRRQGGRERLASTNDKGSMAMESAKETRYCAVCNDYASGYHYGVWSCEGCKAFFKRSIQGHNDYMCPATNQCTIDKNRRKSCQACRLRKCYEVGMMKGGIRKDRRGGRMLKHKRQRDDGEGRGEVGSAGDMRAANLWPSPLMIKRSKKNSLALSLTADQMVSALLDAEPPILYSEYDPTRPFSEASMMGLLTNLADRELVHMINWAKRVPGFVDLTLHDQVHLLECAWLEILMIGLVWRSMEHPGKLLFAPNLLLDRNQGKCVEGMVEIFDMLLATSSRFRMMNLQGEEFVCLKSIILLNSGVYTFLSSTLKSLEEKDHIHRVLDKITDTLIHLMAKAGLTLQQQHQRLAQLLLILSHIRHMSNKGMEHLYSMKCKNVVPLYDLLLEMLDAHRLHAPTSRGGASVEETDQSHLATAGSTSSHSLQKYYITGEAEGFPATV

[4] = Cmax in Sprague-Dawley rat at 10 mg/kg, po measured up to 24 hrs by LC/MS/MS analysis; assay type: ADME, organism-based; parameters: time < 24 hrs, dose 10 mg/kg, route po; conditions: in vivo
[5] = AUC (0 to t) in Sprague-Dawley rat at 10 mg/kg, po measured up to 24 hrs by LC/MS/MS analysis; assay type: ADME, organism-based; parameters: time < 24 hrs, dose 10 mg/kg, route po; conditions: in vivo
Estrogen receptor [6] = biological target: Estrogen receptor (Homo sapiens, UniProt P03372, Y537S); test: Antagonist activity at ERalpha Y537S mutant degradation in human SK-BR-3 cells incubated for 24 hrs in presence of beta-estradiol by luciferase gene assay; assay type: cell-based
Estrogen receptor [7] = biological target: Estrogen receptor (Homo sapiens, UniProt P03372, D538G); test: Antagonist activity at ERalpha D538G mutant degradation in human SK-BR-3 cells incubated for 24 hrs in presence of beta-estradiol by luciferase gene assay; assay type: cell-based
Chain of Estrogen receptor (Homo sapiens, UniProt P03372, D538G) (P03372 whole entry D538G): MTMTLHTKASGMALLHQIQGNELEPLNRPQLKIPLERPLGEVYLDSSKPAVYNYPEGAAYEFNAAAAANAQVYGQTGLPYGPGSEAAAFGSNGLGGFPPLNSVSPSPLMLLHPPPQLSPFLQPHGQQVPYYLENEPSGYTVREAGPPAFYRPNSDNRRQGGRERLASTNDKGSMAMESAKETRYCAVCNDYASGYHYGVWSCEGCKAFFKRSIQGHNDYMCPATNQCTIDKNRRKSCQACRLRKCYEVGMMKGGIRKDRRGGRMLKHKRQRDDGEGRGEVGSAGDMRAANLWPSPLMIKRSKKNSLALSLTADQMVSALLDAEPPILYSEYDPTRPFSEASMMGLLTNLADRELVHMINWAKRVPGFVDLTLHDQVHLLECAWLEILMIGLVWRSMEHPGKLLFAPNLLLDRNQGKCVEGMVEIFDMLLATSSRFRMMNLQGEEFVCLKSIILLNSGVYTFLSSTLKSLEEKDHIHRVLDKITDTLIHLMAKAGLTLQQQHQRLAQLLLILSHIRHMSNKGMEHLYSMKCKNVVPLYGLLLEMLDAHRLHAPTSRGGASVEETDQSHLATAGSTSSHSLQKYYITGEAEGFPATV

Chain of Estrogen receptor (Homo sapiens, UniProt P03372, Y537S) (P03372 whole entry Y537S): as the sequence (P03372 whole entry D538G) above, with Y537S, G538D counted along it

CC(F)(F)c1cc(-c2sc3cc(O)ccc3c2Oc2ccc(/C=C/C(=O)O)cc2)ccc1F
Cmax [1]: 283 ng/mL | AUC(0-t) at 24 h [2]: 585 ng·h/mL

CC/C(=C(\c1ccc(O)cc1)c1ccc(OCCN(C)C)cc1)c1ccccc1
Activity (MCF7): Active

CC(F)(F)c1cc(Cl)ccc1-c1sc2c(ccc3[nH]ncc32)c1Oc1ccc(NC2CN(CCCF)C2)cc1
EC50 (Estrogen receptor [3]): 1.2 nM | Cmax [4]: 228 ng/mL | AUC(0-t) at 24 h [5]: 3090 ng·h/mL | IC50 (Estrogen receptor [6]): 13.1 nM | IC50 (Estrogen receptor [7]): 16.6 nM
